# From article PMC9402538, “Rational design of a sensitivity-enhanced tracer for discovering efficient APC–Asef inhibitors” (Nature Communications, 2022)
# Several values for one entry are separate records, joined by “and”; a condition that tells them apart may be missing. Equal values may be shown once. Read-outs that look alike come from different tables or passages of the source. Where a SMILES comes first, the peptide text is derived from it. [ ]: non-standard residue; d: D form. The star is where a group is joined. Phe(4-tBu) = CC(C)(C)c1ccc(C[C@H](N)C(=O)O)cc1; Bpa = N[C@@H](Cc1ccc(C(=O)c2ccccc2)cc1)C(=O)O; Benzoyl(4-OMe) = COc1ccc(C(=O)*)cc1; 2Furoyl = O=C(c1ccco1)*; X1 = CSc1nccc(C(=O)*)n1
# Tests used:
# [1] = target: T1, APC (Homo sapiens, UniProt P25054); test: FP competitive assay using tracer 1; format: binding
# T1 sequence (P25054 303-739): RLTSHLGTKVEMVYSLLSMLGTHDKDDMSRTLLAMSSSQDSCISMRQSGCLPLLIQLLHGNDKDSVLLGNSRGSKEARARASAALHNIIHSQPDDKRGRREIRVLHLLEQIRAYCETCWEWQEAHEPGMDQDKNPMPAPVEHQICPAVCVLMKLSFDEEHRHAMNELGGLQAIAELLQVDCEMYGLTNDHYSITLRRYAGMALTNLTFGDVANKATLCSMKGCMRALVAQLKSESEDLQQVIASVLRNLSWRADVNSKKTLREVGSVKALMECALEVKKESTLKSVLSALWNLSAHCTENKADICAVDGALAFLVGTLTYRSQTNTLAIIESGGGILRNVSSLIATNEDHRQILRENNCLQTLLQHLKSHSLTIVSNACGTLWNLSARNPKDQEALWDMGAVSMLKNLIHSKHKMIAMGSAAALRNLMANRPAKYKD
# Method: In our previous study, we established an FP assay for screening APC–Asef inhibitors using FITC-labeled tracer 1 (Ac–^176[…][FITC]^195–NH2)[16]. […]. However, their Kd values measured by isothermal titration calorimetry (ITC) actually vary up to more than 20 times[16],[17]. […].
# FITC-labeled tracer peptides were obtained from Changzhou Kanglong Biotech Ltd. (Changzhou, Jiangsu, China). […]. The FP signal changes upon tracer binding were measured after 1.5 h of incubation using a Synergy neo microplate reader (BioTek Instruments, Inc.) and plotted against the protein concentration. The corresponding EC50 values were generated by fitting the curves with a nonlinear regression model. […]. To make a working solution, APC (303–739) was diluted in FP buffer (50 mM HEPES, pH 7.5, 300 mM NaCl, 1 mM EDTA, 1 mM DTT). […] The FP signals were measured after 1.5 h of incubation at room temperature using a Synergy neo microplate reader. Three controls were included on each plate, i.e., blank (without protein and tracer), 100% inhibition (free tracer only), and 0% inhibition (protein/tracer complex only) controls. All experiments were performed in triplicate. The IC50 values of peptides were calculated by nonlinear regression analysis using GraphPad Prism 7.0 software.
# [2] = target: T2, APC (303–739) (Homo sapiens, UniProt P25054); test: FP competitive assay using tracer 7; format: binding
# T2 sequence (P25054 303-739): T1 sequence (P25054 303-739)
# Method: FITC-labeled tracer peptides were obtained from Changzhou Kanglong Biotech Ltd. (Changzhou, Jiangsu, China). […]. The FP signal changes upon tracer binding were measured after 1.5 h of incubation using a Synergy neo microplate reader (BioTek Instruments, Inc.) and plotted against the protein concentration. The corresponding EC50 values were generated by fitting the curves with a nonlinear regression model. […]. To make a working solution, APC (303–739) was diluted in FP buffer (50 mM HEPES, pH 7.5, 300 mM NaCl, 1 mM EDTA, 1 mM DTT). The diluted APC protein (91 μL) was combined with a serial dilution of peptides (4 μL) and incubated at room temperature for 1 h, followed by the addition of 5 μL of 400 nM tracer 7. The FP signals were measured after 1.5 h of incubation at room temperature using a Synergy neo microplate reader. Three controls were included on each plate, i.e., blank (without protein and tracer), 100% inhibition (free tracer only), and 0% inhibition (protein/tracer complex only) controls. All experiments were performed in triplicate. The IC50 values of peptides were calculated by nonlinear regression analysis using GraphPad Prism 7.0 software.
# [3] = Conc. 0.0049 μM, individual repeats, Fig3b
# [4] = Conc. 0.0098 μM, individual repeats, Fig3b
# [5] = Conc. 0.0195 μM, individual repeats, Fig3b
# [6] = Conc. 0.0391 μM, individual repeats, Fig3b
# [7] = Conc. 0.0781 μM, individual repeats, Fig3b
# [8] = Conc. 0.1563 μM, individual repeats, Fig3b
# [9] = Conc. 0.3125 μM, individual repeats, Fig3b
# [10] = Conc. 0.625 μM, individual repeats, Fig3b
# [11] = Conc. 2.5 μM, individual repeats, Fig3b
# [12] = Conc. 5 μM, individual repeats, Fig3b
# [13] = Conc. 10 μM, individual repeats, Fig3b
# [14] = Conc. 20 μM, individual repeats, Fig3b
smiles,measurement,setting,value
CC(C)C[C@H](NC(=O)[C@H](CO)NC(=O)[C@H](CCC(=O)O)NC(=O)CNC(=O)[C@H](C)NC(=O)c1ccco1)C(=O)N[C@@H](Cc1ccc(O)cc1)C(=O)N[C@@H](Cc1ccc(C(=O)c2ccccc2)cc1)C(N)=O [MAI-454] (2Furoyl-AGESLY[Bpa]-NH2),IC50,[1],480 ± 150 nM
CSc1nccc(C(=O)N[C@@H](C)C(=O)NCC(=O)N[C@@H](CCC(=O)O)C(=O)N[C@@H](CO)C(=O)N[C@@H](CC(C)C)C(=O)N[C@@H](Cc2ccc(O)cc2)C(=O)N[C@@H](CCC(=O)O)C(N)=O)n1 [MAI-456] (X1-AGESLYE-NH2),IC50,"[1]; Supplementary Table 4, read-out: IC50, Tracer 1",570 ± 120 nM
COc1ccc(C(=O)N[C@@H](C)C(=O)NCC(=O)N[C@@H](CCC(=O)O)C(=O)N[C@@H](CO)C(=O)N[C@@H](CC(C)C)C(=O)N[C@@H](Cc2ccc(O)cc2)C(=O)N[C@@H](Cc2ccc(C(=O)c3ccccc3)cc2)C(N)=O)cc1 [MAI-521] ({Benzoyl(4-OMe)}-AGESLY[Bpa]-NH2),inhibition at 0.0015 µM,"[2]; Conc. 0.0015 μM, individual repeats, Fig3b",1.5%
same,%inhibition,"[2]; Conc. 0.0024 μM, individual repeats, Fig3b",-0.4% and 2.8%
same,inhibition at 0.0031 µM,"[2]; Conc. 0.0031 μM, individual repeats, Fig3b",2%
same,%inhibition,[2]; [3],2.6%
same,inhibition at 0.0049 µM,[2]; [3],1.8%
same,inhibition at 0.006 µM,"[2]; Conc. 0.006 μM, individual repeats, Fig3b",3.2%
same,%inhibition,[2]; [4],10.8%
same,inhibition at 0.0098 µM,[2]; [4],6.3%
same,inhibition at 0.012 µM,"[2]; Conc. 0.012 μM, individual repeats, Fig3b",9%
same,%inhibition,[2]; [5],24.3%
same,inhibition at 0.0195 µM,[2]; [5],16%
same,inhibition at 0.024 µM,"[2]; Conc. 0.024 μM, individual repeats, Fig3b",22.1%
same,%inhibition,[2]; [6],41%
same,inhibition at 0.0391 µM,[2]; [6],35.5%
same,inhibition at 0.049 µM,"[2]; Conc. 0.049 μM, individual repeats, Fig3b",39.2%
same,%inhibition,[2]; [7],60.9%
same,inhibition at 0.0781 µM,[2]; [7],56.4%
same,inhibition at 0.098 µM,"[2]; Conc. 0.098 μM, individual repeats, Fig3b",74.8%
same,%inhibition,[2]; [8],75%
same,inhibition at 0.1563 µM,[2]; [8],74.4%
same,inhibition at 0.195 µM,"[2]; Conc. 0.195 μM, individual repeats, Fig3b",77.9%
same,%inhibition,[2]; [9],86.3%
same,inhibition at 0.3125 µM,[2]; [9],86%
same,inhibition at 0.391 µM,"[2]; Conc. 0.391 μM, individual repeats, Fig3b",87.6%
same,%inhibition,[2]; [10],93.8%
same,inhibition at 0.625 µM,[2]; [10],92%
same,inhibition at 0.781 µM,"[2]; Conc. 0.781 μM, individual repeats, Fig3b",92.8%
same,inhibition at 1.25 µM,"[2]; Conc. 1.25 μM, individual repeats, Fig3b",95.3%
same,inhibition at 1.563 µM,"[2]; Conc. 1.563 μM, individual repeats, Fig3b",95.7%
same,%inhibition,[2]; [11],98.9%
same,inhibition at 2.5 µM,[2]; [11],96.1%
same,inhibition at 3.125 µM,"[2]; Conc. 3.125 μM, individual repeats, Fig3b",97.1%
same,%inhibition,[2]; [12],100.8%
same,inhibition at 5 µM,[2]; [12],96.6%
same,inhibition at 6.25 µM,"[2]; Conc. 6.25 μM, individual repeats, Fig3b",98.3%
same,%inhibition,[2]; [13],101.1%
same,inhibition at 10 µM,[2]; [13],97.4%
same,inhibition at 12.5 µM,"[2]; Conc. 12.5 μM, individual repeats, Fig3b",97.7%
same,%inhibition,[2]; [14],101.7%
same,inhibition at 20 µM,[2]; [14],97%
same,IC50,"[2]; IC50 Repeat 1, tracer 7",53.6 nM
same,IC50,"[2]; IC50 Repeat 2, tracer 7",54 nM
same,IC50,"[2]; IC50 Repeat 3, tracer 7",51.6 nM
same,IC50,"[2]; IC50 mean, tracer 7, mean of three repeats",53.1 nM
same,"mean (FP signal, FigS5)","[2]; Repeat 1, Conc. 0.0015 μM",296.3
same,"mean (FP signal, FigS5)","[2]; Repeat 1, Conc. 0.0031 μM",295
same,"mean (FP signal, FigS5)","[2]; Repeat 1, Conc. 0.006 μM",292
same,"mean (FP signal, FigS5)","[2]; Repeat 1, Conc. 0.012 μM",277.7
same,"mean (FP signal, FigS5)","[2]; Repeat 1, Conc. 0.024 μM",245
same,"mean (FP signal, FigS5)","[2]; Repeat 1, Conc. 0.049 μM",202.3
same,"mean (FP signal, FigS5)","[2]; Repeat 1, Conc. 0.098 μM",113.7
same,"mean (FP signal, FigS5)","[2]; Repeat 1, Conc. 0.195 μM",106
same,"mean (FP signal, FigS5)","[2]; Repeat 1, Conc. 0.391 μM",82
same,"mean (FP signal, FigS5)","[2]; Repeat 1, Conc. 0.781 μM",69
same,"mean (FP signal, FigS5)","[2]; Repeat 1, Conc. 1.563 μM",61.7
same,"mean (FP signal, FigS5)","[2]; Repeat 1, Conc. 3.125 μM",58.3
same,"mean (FP signal, FigS5)","[2]; Repeat 1, Conc. 6.25 μM",55.3
same,"mean (FP signal, FigS5)","[2]; Repeat 1, Conc. 12.5 μM",56.7
same,"mean (FP signal, FigS5)","[2]; Repeat 2, Conc. 0.0024 μM",282.7
same,"mean (FP signal, FigS5)","[2]; Repeat 2, Conc. 0.0049 μM",277.5
same,"mean (FP signal, FigS5)","[2]; Repeat 2, Conc. 0.0098 μM",267
same,"mean (FP signal, FigS5)","[2]; Repeat 2, Conc. 0.0195 μM",244.3
same,"mean (FP signal, FigS5)","[2]; Repeat 2, Conc. 0.0391 μM",199
same,"mean (FP signal, FigS5)","[2]; Repeat 2, Conc. 0.0781 μM",150.3
same,"mean (FP signal, FigS5)","[2]; Repeat 2, Conc. 0.1563 μM",108.7
same,"mean (FP signal, FigS5)","[2]; Repeat 2, Conc. 0.3125 μM",81.7
same,"mean (FP signal, FigS5)","[2]; Repeat 2, Conc. 0.625 μM",67.7
same,"mean (FP signal, FigS5)","[2]; Repeat 2, Conc. 1.25 μM",60
same,"mean (FP signal, FigS5)","[2]; Repeat 2, Conc. 2.5 μM",58
same,"mean (FP signal, FigS5)","[2]; Repeat 2, Conc. 5 μM",57
same,"mean (FP signal, FigS5)","[2]; Repeat 2, Conc. 10 μM",55
same,"mean (FP signal, FigS5)","[2]; Repeat 2, Conc. 20 μM",56
same,"mean (FP signal, FigS5)","[2]; Repeat 3, Conc. 0.0024 μM",286
same,"mean (FP signal, FigS5)","[2]; Repeat 3, Conc. 0.0049 μM",286.5
same,"mean (FP signal, FigS5)","[2]; Repeat 3, Conc. 0.0098 μM",266.5
same,"mean (FP signal, FigS5)","[2]; Repeat 3, Conc. 0.0195 μM",234
same,"mean (FP signal, FigS5)","[2]; Repeat 3, Conc. 0.0391 μM",193.7
same,"mean (FP signal, FigS5)","[2]; Repeat 3, Conc. 0.0781 μM",145.7
same,"mean (FP signal, FigS5)","[2]; Repeat 3, Conc. 0.1563 μM",111.7
same,"mean (FP signal, FigS5)","[2]; Repeat 3, Conc. 0.3125 μM",84.3
same,"mean (FP signal, FigS5)","[2]; Repeat 3, Conc. 0.625 μM",66.3
same,"mean (FP signal, FigS5)","[2]; Repeat 3, Conc. 1.25 μM",58.7
same,"mean (FP signal, FigS5)","[2]; Repeat 3, Conc. 2.5 μM",54
same,"mean (FP signal, FigS5)","[2]; Repeat 3, Conc. 5 μM",49.3
same,"mean (FP signal, FigS5)","[2]; Repeat 3, Conc. 10 μM",48.7
same,"mean (FP signal, FigS5)","[2]; Repeat 3, Conc. 20 μM",47.3
COc1ccc(C(=O)N[C@@H](C)C(=O)NCC(=O)N[C@@H](CCC(=O)O)C(=O)N[C@@H](CO)C(=O)N[C@@H](CC(C)C)C(=O)N[C@@H](Cc2ccc(O)cc2)C(=O)N[C@@H](Cc2ccc(C(C)(C)C)cc2)C(N)=O)cc1 [MAI-522] ({Benzoyl(4-OMe)}-AGESLY[Phe(4-tBu)]-NH2),IC50,"[2]; tracer 7, mean of three repeats, read-out: IC50 mean",147 nM
same,IC50,"[2]; tracer 7, read-out: IC50 Repeat 1",166 nM
same,IC50,"[2]; tracer 7, read-out: IC50 Repeat 2",144 nM
same,IC50,"[2]; tracer 7, read-out: IC50 Repeat 3",131 nM
